# Data taken from patent US20240245677A1, “SELECTED COMPOUNDS FOR TARGETED DEGRADATION OF BRD9” (C4 THERAPEUTICS, INC., priority 2021, published 2024).
# Tests used:
# G402 tumor xenografts = experiment: Antitumor activity in G402 malignant rhabdoid tumor xenograft model; assay type: in vivo, mouse; conditions: for TGI: day 21
# Procedure: To evaluate the efficacy potential of Compound 1 in the malignant rhabdoid tumor setting, BALB/c nude female mice bearing G402 tumor xenografts (WuXi AppTec, Shanghai, China) were treated with a daily regimen of escalating doses of Compound 1 (10 mg/kg, 30 mg/kg, or 50 mg/kg) or vehicle via oral gavage for 21 days (FIG. 3). Compound 1 was tolerated in this study with all mice except two losing no greater than 8% body weight (FIG. 4). […] One mouse in the 50 mg/kg QD group also experienced accumulating body weight loss to end the study at −17.3% but was never taken off study. […] TGI and One-way ANOVA analyses were performed on day 21, the last day all animals were on study.
# The G402 tumor cells were maintained in vitro in McCoy's 5a medium supplemented with 10% fetal bovine serum and 1% Penicillin-Streptomycin at 37° C. in an atmosphere of 5% CO2 in air. The tumor cells were routinely subcultured twice weekly. The cells growing in an exponential growth phase were harvested and counted for tumor inoculation.
# Each mouse was inoculated subcutaneously at the right flank with G402 cells (10×10^6) in 0.2 mL of PBS supplemented with Matrigel (PBS:Matrigel=1:1) for tumor development. For efficacy part, the treatments were started when the average tumor volume reaches 175 mm^3.
# GSPT1 = biological target: T1, GSPT1 (Homo sapiens, UniProt P15170+Q96SW2); experiment: GSPT1 HiBiT degradation assay in HEK293T.114 cells; assay type: cell-based; conditions: 6 hours
# T1 construct: CRISPR-edited to endogenously express HiBiT tagged GSPT1; host or cells: HEK293T.114
# Text: This assay evaluated the off-target degradation of the cereblon neosubstrate, Eukaryotic peptide chain release factor GTP-binding subunit ERF3A (GSPT1), induced by treatment with Compound 1 as measured by luminescence using Nano-Glo HiBiT® Lytic Assay System in 293T cells CRISPR-edited to endogenously express HiBiT tagged GSPT1.
# Nano-Glo® HiBiT Lytic Assay System was purchased from Promega (Catalog No. N3050, Madison, WI, USA). HEK293T cells were obtained from ATCC (Catalog No. CRL-3216, Manassas, VA, USA), and maintained in DMEM medium (Catalog No. 11995065, ThermoFischer Scientific, Waltham, MA, USA) supplemented with 10% heat inactivated FBS (Catalog No. 16000-044, Gibco, Grand Island, NY, USA) at 37° C. in an atmosphere of 5% CO2 in air. The HiBiT polypeptide tag was introduced into the N-terminus of the endogenous GSPT1 locus by CRISPR-Cas9 to produce the HEK293T.114 modified cell line. The HiBiT polypeptide allows reconstitution of NanoBiT enzyme following cell lysis and addition of the complementing LgBiT polypeptide that activates substrate to produce a luminescent signal that is directly proportional to the amount of HiBiT-tagged GSPT1.
# HEK293T.114 cells were routinely sub-cultured to maintain cell density between 30-80% confluence, not to exceed 20 passages. Cells were washed with PBS, trypsinized for 5 minutes at 37° C., and resuspended in fresh growth media without phenol red. An aliquot was diluted 2× with Trypan Blue solution 0.4% (Catalog No. 15250061, ThermoFisher Scientific, Waltham, MA, USA) and cell count determined. Cell concentration was adjusted with growth media without phenol red to 2×10^5 cells/mL.
# The 10 mM DMSO stock solutions of Compound 1 or CC0885 were serially diluted (half log) in DMSO to generate 11-point dose series (10000, 3160, 1000, 316, 100, 31.6, 10, 3.2, 1, 0.32, 0.1 μM) in an acoustic ready 384-well low dead volume microplate (Catalog No. LP-0200, Beckman Coulter Life Sciences, Indianapolis, IN, USA). Using an Echo 550 Acoustic Liquid Handler (Beckman Coulter Life Sciences, Indianapolis, IN, USA), 30 nL of serially diluted compound solutions were dispensed in duplicate to each 384-well black TC-treated microplate (Catalog No. 3571, Corning, Glendale, CA, USA). 30 nL DMSO was transferred to all control wells.
# 30 μL of HEK293T.114 cells suspended in growth media without phenol red at 2×10^5 cells/mL (6000 cells/well) were dispensed using a Multidrop Combi Reagent Dispenser (Catalog No. 5840300, ThermoFisher Scientific, Waltham, MA, USA) to each well of columns 1-23 of 384-well black TC-treated microplates containing duplicate concentration range of test compounds and DMSO controls. 30 μL of media was dispensed to column 24 as background positive control (P). Plates were spun briefly at 1000 rpm and cells were incubated at 37° C., 5% CO2 for 6 hours. Final concentration of DMSO was 0.1% for all samples.
# Cellular GSPT1 protein level was determined based on quantification of HiBiT using Nano-Glo® HiBiT Lytic Assay System (Promega). 30 μL Nano-Glo Lytic Assay reagents were added to each well of columns 1-23 and luminescence was acquired on EnVision® Multilabel Reader (Catalog No. 2104-0010, Perkin Elmer Inc., Dumfries, VA, USA). Column 24 (cells without Nano-Glo reagent addition) was used as plate background or positive control (P). Cells treated in the absence of the test compound (0.1% DMSO vehicle) were the negative control (N)/
# Percent response of compound-treated samples (T) were calculated by normalizing to the DMSO treated negative (N) controls on the same microtiter plate after background (i.e., positive control) signal subtraction:
# Curve fit and DC50 (concentration that degrades 50% GSPT1) determination was performed by 4 parametric logistic fit analysis using software such as GraphPad Prism software (GraphPad Software, LLC, San Diego, CA, USA). […]
# IKZF1 = biological target: T2, IKZF1 (Homo sapiens, UniProt Q13422+Q96SW2); experiment: IKZF1 HiBiT degradation assay in NCIH929.11 cells; assay type: cell-based
# T2 construct: CRISPR-edited to endogenously express HiBiT tagged IKZF1; host or cells: NCIH929.11
# T2 sequence (Q13422 whole entry): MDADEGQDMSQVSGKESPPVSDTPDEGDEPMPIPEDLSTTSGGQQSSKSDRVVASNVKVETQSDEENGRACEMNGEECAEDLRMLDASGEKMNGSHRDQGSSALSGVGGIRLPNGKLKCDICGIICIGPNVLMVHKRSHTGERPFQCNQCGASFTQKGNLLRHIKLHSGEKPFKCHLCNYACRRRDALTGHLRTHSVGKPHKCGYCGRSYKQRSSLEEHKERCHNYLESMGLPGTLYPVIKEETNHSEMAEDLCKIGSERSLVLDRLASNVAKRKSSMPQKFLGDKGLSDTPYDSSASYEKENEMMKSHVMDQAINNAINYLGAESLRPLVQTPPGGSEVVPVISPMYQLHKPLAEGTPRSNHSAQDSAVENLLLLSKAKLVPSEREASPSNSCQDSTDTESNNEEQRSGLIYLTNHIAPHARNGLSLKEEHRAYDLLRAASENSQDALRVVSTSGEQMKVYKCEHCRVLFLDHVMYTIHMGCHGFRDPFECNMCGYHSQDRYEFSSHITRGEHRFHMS
# T2 sequence (Q96SW2 whole entry): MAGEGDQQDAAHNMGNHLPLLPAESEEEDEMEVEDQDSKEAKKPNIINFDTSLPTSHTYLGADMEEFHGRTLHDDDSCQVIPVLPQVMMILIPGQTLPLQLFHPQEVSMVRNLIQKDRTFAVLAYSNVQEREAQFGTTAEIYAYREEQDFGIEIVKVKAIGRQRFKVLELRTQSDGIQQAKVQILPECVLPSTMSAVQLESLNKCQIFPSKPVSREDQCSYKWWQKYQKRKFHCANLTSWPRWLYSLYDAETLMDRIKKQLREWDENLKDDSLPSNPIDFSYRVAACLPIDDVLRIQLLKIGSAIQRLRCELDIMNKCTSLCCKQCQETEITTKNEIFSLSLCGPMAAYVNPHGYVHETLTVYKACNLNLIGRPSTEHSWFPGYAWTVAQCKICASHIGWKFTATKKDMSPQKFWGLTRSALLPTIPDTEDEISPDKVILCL
# T2 sequence (Q16531 2-1140 partner limits assumed): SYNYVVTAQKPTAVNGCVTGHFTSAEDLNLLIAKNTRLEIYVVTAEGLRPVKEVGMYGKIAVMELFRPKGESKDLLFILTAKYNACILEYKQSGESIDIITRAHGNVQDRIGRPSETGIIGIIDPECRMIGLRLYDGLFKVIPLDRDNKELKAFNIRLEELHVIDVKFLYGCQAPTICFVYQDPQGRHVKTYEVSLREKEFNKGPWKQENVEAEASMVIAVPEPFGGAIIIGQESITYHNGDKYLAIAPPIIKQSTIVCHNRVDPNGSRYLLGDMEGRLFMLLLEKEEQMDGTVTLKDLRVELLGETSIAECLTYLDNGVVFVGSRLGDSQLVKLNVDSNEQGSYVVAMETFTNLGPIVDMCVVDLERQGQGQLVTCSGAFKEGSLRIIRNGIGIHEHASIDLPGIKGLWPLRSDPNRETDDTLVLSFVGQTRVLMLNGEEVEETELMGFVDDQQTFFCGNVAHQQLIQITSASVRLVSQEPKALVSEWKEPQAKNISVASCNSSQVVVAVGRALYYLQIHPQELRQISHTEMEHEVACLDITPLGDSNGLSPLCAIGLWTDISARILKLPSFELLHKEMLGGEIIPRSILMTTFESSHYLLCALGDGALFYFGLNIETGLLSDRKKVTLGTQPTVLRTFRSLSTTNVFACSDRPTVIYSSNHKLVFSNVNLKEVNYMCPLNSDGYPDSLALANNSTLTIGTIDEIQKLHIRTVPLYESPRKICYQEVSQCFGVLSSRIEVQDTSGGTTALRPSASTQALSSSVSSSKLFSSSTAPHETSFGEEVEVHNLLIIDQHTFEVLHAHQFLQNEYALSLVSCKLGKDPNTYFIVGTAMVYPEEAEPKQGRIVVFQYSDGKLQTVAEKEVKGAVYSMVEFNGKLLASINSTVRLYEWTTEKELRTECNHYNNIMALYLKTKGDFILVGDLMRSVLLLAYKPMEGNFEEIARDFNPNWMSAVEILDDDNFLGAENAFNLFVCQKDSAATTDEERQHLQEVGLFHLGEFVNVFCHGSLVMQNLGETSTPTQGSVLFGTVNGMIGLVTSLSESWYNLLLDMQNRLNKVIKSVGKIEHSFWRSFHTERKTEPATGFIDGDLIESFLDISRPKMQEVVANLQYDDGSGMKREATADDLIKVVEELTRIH
# T1 sequence (P15170 whole entry): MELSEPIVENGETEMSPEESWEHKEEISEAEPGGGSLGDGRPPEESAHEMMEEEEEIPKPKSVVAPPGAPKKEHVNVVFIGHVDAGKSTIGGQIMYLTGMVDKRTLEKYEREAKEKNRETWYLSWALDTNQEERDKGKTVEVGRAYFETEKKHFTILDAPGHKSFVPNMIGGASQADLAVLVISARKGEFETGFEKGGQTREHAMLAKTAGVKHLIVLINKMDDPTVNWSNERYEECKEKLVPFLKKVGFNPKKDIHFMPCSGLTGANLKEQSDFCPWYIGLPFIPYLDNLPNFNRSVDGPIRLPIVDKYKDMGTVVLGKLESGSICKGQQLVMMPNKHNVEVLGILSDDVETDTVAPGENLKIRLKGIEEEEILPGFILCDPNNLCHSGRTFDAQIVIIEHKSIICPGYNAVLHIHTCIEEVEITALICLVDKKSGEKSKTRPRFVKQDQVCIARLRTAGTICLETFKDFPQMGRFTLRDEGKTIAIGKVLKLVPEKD
# T1 sequence (Q96SW2 whole entry): as the sequence (Q96SW2 whole entry) above
# T1 sequence (Q16531 2-1140 partner limits assumed): as the sequence (Q16531 2-1140 partner limits assumed) above
smiles,measurement,setting,value
"COc1cc(-c2cn(C)c(=O)c(C)c2C)cc(OC)c1CN1CC[C@H](N2CCN(c3ccc(N[C@H]4CCC(=O)NC4=O)cc3F)CC2)C(F)(F)C1 [Compound 1, (S)-3-((4-(4-((S)-1-(2,6-dimethoxy-4-(1,4,5-trimethyl-6-oxo-1,6-dihydropyridin-3-yl)benzyl)-3,3-difluoropiperidin-4-yl)piperazin-1-yl)-3-fluorophenyl)amino)-piperidine-2,6-dione]","body weight loss, one mouse",G402 tumor xenografts; 10 mg/kg QD group,over 15%
same,TGI,G402 tumor xenografts; 30 mg/kg/day oral,73%
same,"body weight change at end of study, one mouse",G402 tumor xenografts; 50 mg/kg QD group,−17.3%
same,TGI,G402 tumor xenografts; 50 mg/kg/day oral,78%
same,"body weight loss, all mice except two","G402 tumor xenografts; 10, 30 or 50 mg/kg daily for 21 days",≤ 8%
same,"% GSPT1 Remaining, Mean",GSPT1; 0.100 nM,97.4%
same,"% GSPT1 Remaining, Mean",GSPT1; 0.316 nM,86.7%
same,"% GSPT1 Remaining, Mean",GSPT1; 1.00 nM,70.8%
same,"% GSPT1 Remaining, Mean",GSPT1; 3.15 nM,34.4%
same,"% GSPT1 Remaining, Mean",GSPT1; 10.0 nM,12.4%
same,"% GSPT1 Remaining, Mean",GSPT1; 31.5 nM,6.0%
same,"% GSPT1 Remaining, Mean",GSPT1; 100 nM,4.0%
same,"% GSPT1 Remaining, Mean",GSPT1; 317 nM,3.5%
same,"% GSPT1 Remaining, Mean",GSPT1; 1000 nM,3.2%
same,"% GSPT1 Remaining, Mean",GSPT1; 3161 nM,3.0%
same,"% GSPT1 Remaining, Mean",GSPT1; 9990 nM,3.8%
same,DC50,"GSPT1; GSPT1-HiBiT, HEK293T.114 cells, read-out: Geometric Mean DC50",> 10 µM
same,Emax,"GSPT1; GSPT1-HiBiT, HEK293T.114 cells, read-out: Mean Emax (%) ± SD",93.9 ± 5.85%
same,effect on degradation of GSPT1,GSPT1; concentrations up to 10 μM,no significant effect
same,"% IKZF1 Remaining Relative to Vehicle Control at 6 hr, Mean",IKZF1; 0.101 nM,100.8%
same,"% IKZF1 Remaining Relative to Vehicle Control at 6 hr, Mean",IKZF1; 0.318 nM,106.4%
same,"% IKZF1 Remaining Relative to Vehicle Control at 6 hr, Mean",IKZF1; 1.01 nM,102.9%
same,"% IKZF1 Remaining Relative to Vehicle Control at 6 hr, Mean",IKZF1; 3.17 nM,100.4%
same,"% IKZF1 Remaining Relative to Vehicle Control at 6 hr, Mean",IKZF1; 10.0 nM,98.5%
same,"% IKZF1 Remaining Relative to Vehicle Control at 6 hr, Mean",IKZF1; 31.7 nM,96.0%
same,"% IKZF1 Remaining Relative to Vehicle Control at 6 hr, Mean",IKZF1; 100 nM,95.9%
same,"% IKZF1 Remaining Relative to Vehicle Control at 6 hr, Mean",IKZF1; 317 nM,91.5%
same,"% IKZF1 Remaining Relative to Vehicle Control at 6 hr, Mean",IKZF1; 1000 nM,93.3%
same,"% IKZF1 Remaining Relative to Vehicle Control at 6 hr, Mean",IKZF1; 3161 nM,80.8%
same,"% IKZF1 Remaining Relative to Vehicle Control at 6 hr, Mean",IKZF1; 9990 nM,74.2%
same,degradation of IKZF1,"IKZF1; 10 μM, 6 hours",25%
same,Emax,"IKZF1; IKZF1-HiBiT, NCIH929.11 cells, 6 hours, read-out: Mean Emax (%) ± SD",74.2 ± 8.2%
same,effect on degradation of IKZF1,"IKZF1; concentrations up to 1 μM, 6 hours",no significant effect
